Series [1] relates to Mus musculus. Briefly: Antagonist activity at mesolimbic dopaminergic D2 receptor in Swiss albino Mus musculus (mouse) assessed as inhibition of apomorphine-induced cage climbing behavior at 10 mg/kg, ip administered 1 hr prior to apomorphine challenge measured after 20 min relative to vehicle-treated control. In kind it is functional. The settings on record: route intraperitoneal.

Series [2] deals with Mus musculus. The experiment in a line: Antagonist activity at mesolimbic dopaminergic D2 receptor in Swiss albino Mus musculus (mouse) assessed as inhibition of apomorphine-induced cage climbing behavior at 10 mg/kg, ip administered 1 hr prior to apomorphine challenge measured after 10 min relative to vehicle-treated control. The series is classed as functional. To be noted: route intraperitoneal.

Series [3] has as its target 5-hydroxytryptamine receptor 2A (Rattus norvegicus) (UniProt P14842). The experiment in a line: Displacement of [3H]ketanserin from 5-HT2A receptor in Rattus norvegicus (rat) cortex membrane homogenates at 10 uM after 90 min by liquid scintillation counting analysis. A general note: Loss of bound radioactivity is the signal in a displacement assay; it reports binding, not function.

For series [4], the target named is D(2) dopamine receptor (Rattus norvegicus) (UniProt P61169). The experiment in a line: Displacement of [3H]spiperone from D2 receptor in Rattus norvegicus (rat) straitum membrane homogenates at 10 uM after 60 min by liquid scintillation counting analysis.
Chain of D(2) dopamine receptor (Rattus norvegicus) (P61169 whole entry): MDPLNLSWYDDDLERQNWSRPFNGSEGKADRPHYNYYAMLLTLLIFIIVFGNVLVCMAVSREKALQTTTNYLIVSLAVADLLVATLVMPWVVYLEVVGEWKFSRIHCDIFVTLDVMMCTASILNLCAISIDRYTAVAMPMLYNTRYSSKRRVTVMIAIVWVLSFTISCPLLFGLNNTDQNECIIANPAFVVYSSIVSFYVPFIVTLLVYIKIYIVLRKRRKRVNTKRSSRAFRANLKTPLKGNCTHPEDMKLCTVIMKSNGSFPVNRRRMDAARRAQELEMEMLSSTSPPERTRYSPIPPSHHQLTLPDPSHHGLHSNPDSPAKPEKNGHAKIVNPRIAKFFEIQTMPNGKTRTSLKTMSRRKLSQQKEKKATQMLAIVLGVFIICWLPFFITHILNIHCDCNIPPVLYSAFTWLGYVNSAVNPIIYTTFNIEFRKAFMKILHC
Series [5] shares this target. The experiment in a line: Displacement of [3H]spiperone from D2 receptor in Rattus norvegicus (rat) straitum membrane homogenates at 100 uM after 60 min by liquid scintillation counting analysis.
The subject of series [6] is Mus musculus. Briefly: Antagonist activity at nigrostriatal dopaminergic D2 receptor in Swiss albino Mus musculus (mouse) assessed as maximum average cataleptic time at 10 mg/kg, ip after 1 to 5 hr relative to vehicle-treated control. In kind it is organism-based. To be noted: in vivo. On the set-up: dose 10 mg/kg, route intraperitoneal.
Series [7] has as its system Mus musculus. Briefly: Antagonist activity at central serotonergic 5-HT2A receptor in Swiss albino Mus musculus (mouse) assessed as inhibition of quipazine meleate-induced head twiches at 10 mg/kg, ip administered 1 hr prior to quipazine meleate challenge measured after 30 to 40 min relative to vehicle-treated control. The series is classed as functional. To be noted: route intraperitoneal.

For series [8], the system named is Mus musculus. The experiment in a line: Antagonist activity at mesolimbic dopaminergic D2 receptor in Swiss albino Mus musculus (mouse) assessed as inhibition of apomorphine-induced cage climbing behavior at 10 mg/kg, ip administered 1 hr prior to apomorphine challenge measured after 30 min relative to vehicle-treated control. The settings on record: route intraperitoneal. In kind it is functional.

Series [9] has as its system Mus musculus. The experiment in a line: Selectivity ratio of inhibition of 5-HT2A receptor in Swiss albino Mus musculus (mouse) to inhibition of dopaminergic D2 receptor in Swiss albino Mus musculus (mouse) at 10 mg/kg, ip. The settings on record: route intraperitoneal. The series is classed as functional.
The test system of series [10] is Mus musculus. Briefly: In vivo inhibition of dopaminergic D2 receptor in Swiss albino Mus musculus (mouse) at 10 mg/kg, ip relative to vehicle-treated control. The settings on record: route intraperitoneal. The series is classed as functional.
Series [11] deals with Mus musculus. Briefly: In vivo inhibition of 5-HT2A receptor in Swiss albino Mus musculus (mouse) at 10 mg/kg, ip relative to vehicle-treated control. To be noted: route intraperitoneal. In kind it is functional.
For series [12], the target named is D(2) dopamine receptor (Rattus norvegicus) (UniProt P61169). The experiment in a line: Displacement of [3H]spiperone from dopaminergic D2 receptor in Rattus norvegicus (rat) straitum membrane homogenates up to 1 uM after 60 min by liquid scintillation counting analysis.
The target in series [13] is 5-hydroxytryptamine receptor 2A (Rattus norvegicus) (UniProt P14842). The experiment in a line: Displacement of [3H]ketanserin from 5-HT2A receptor in Rattus norvegicus (rat) cortex membrane homogenates up to 1 uM after 90 min by liquid scintillation counting analysis.
Chain of 5-hydroxytryptamine receptor 2A (Rattus norvegicus) (P14842 whole entry): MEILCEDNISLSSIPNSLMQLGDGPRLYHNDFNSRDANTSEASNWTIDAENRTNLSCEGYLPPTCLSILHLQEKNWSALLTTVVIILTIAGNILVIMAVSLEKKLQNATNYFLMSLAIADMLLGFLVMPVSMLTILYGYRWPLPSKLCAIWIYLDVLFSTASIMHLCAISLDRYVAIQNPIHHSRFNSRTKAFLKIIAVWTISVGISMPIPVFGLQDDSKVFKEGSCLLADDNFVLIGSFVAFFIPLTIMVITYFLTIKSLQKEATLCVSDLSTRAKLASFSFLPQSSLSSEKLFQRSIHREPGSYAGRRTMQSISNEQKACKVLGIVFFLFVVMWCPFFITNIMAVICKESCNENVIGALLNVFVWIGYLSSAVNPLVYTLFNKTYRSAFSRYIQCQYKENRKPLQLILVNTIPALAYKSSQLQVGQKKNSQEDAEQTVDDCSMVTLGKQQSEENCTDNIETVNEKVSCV
The test system of series [14] is Mus musculus. The experiment in a line: Antagonist activity at mesolimbic dopaminergic D2 receptor in Swiss albino Mus musculus (mouse) assessed as inhibition of apomorphine-induced cage climbing behavior at 0.6 mg/kg, ip administered 1 hr prior to apomorphine challenge measured after 20 min relative to vehicle-treated control. In kind it is functional. The settings on record: route intraperitoneal.

Series [15] deals with Mus musculus. The experiment in a line: Antagonist activity at mesolimbic dopaminergic D2 receptor in Swiss albino Mus musculus (mouse) assessed as inhibition of apomorphine-induced cage climbing behavior at 0.6 mg/kg, ip administered 1 hr prior to apomorphine challenge measured after 10 min relative to vehicle-treated control. To be noted: route intraperitoneal. The series is classed as functional.

Series [16] concerns Mus musculus. Briefly: Antagonist activity at central serotonergic 5-HT2A receptor in Swiss albino Mus musculus (mouse) assessed as inhibition of quipazine meleate-induced head twiches at 0.6 mg/kg, ip administered 1 hr prior to quipazine meleate challenge measured after 30 to 40 min relative to vehicle-treated control. The settings on record: route intraperitoneal. In kind it is functional.

Series [17] deals with Mus musculus. The experiment in a line: Antagonist activity at mesolimbic dopaminergic D2 receptor in Swiss albino Mus musculus (mouse) assessed as inhibition of apomorphine-induced cage climbing behavior at 0.6 mg/kg, ip administered 1 hr prior to apomorphine challenge measured after 30 min relative to vehicle-treated control. In kind it is functional. To be noted: route intraperitoneal.

Series [18] concerns Mus musculus. The experiment in a line: Antagonist activity at nigrostriatal dopaminergic D2 receptor in Swiss albino Mus musculus (mouse) assessed as maximum average cataleptic time at 0.6 mg/kg, ip after 1 to 5 hr relative to vehicle-treated control. In kind it is organism-based. To be noted: in vivo. Details: dose 0.6 mg/kg, route intraperitoneal.

The source made the active and inactive calls. No cut-off for these calls is given here.

Usually inhibition in vivo stands for the percentage by which the read-out fell short of the control. For orientation: inhibition means the share of the control response that was lost under treatment.

For `COc1nc2ccccc2nc1N1CCN(CCc2ccc(-c3csc(N)n3)cc2)CC1`, the inhibition in vivo at 10 mg/kg with Mus musculus [1] came out at 60%; with Mus musculus [2], 60%; in the series on Mus musculus [7], 12%; with Mus musculus [8], 65%; in the series with Mus musculus [11], 12%. Moreover, the inhibition is 49% in series [3] and 24% in series [5]. In addition, the inhibition entry in series [4], in series [12] and in [13] was “inactive” throughout. Further, in the series on Mus musculus [6], the Time is given as 14.12 s. Further, the Selectivity ratio with Mus musculus [9] stood at 0.1846. Besides, the Imax with Mus musculus [10] came to 65%.

Regarding `Nc1nc(-c2ccc(CCN3CCN(c4cnc5ccccc5n4)CC3)cc2)cs1`, the inhibition in vivo at 10 mg/kg in the series with Mus musculus [1] came out at 75%; in the series with Mus musculus [2], 60%; in the series on Mus musculus [7] it was 15%; in the series on Mus musculus [8], 65%; in the series with Mus musculus [11], 15%. For the same compound, the inhibition in series [3] is 51%; in [5], 26%. For the same compound, the inhibition result in series [4], in [12] and in [13] was “inactive” each time. The Time in the series on Mus musculus [6] is given as 9.21 s. The Selectivity ratio in the series on Mus musculus [9] is recorded as 0.2. Besides, the Imax in the series on Mus musculus [10] worked out at 75%.

Regarding `Cc1nc(-c2ccc(CCN3CCN(c4cnc5ccccc5n4)CC3)cc2)cs1`, the inhibition in vivo at 10 mg/kg with Mus musculus [1] was 55%; with Mus musculus [2] it was 75%; in the series with Mus musculus [7], 77%; in the series on Mus musculus [8] it was 85%; in the series on Mus musculus [11] it was 77%. The inhibition in [3] came to 63%; in series [5] it was 30%. The inhibition result in series [4], in series [12] and in series [13] was “inactive” in each case. For the same compound, the Time in the series with Mus musculus [6] was determined as 5.17 s. Also, in the series with Mus musculus [9], the Selectivity ratio was found to be 0.9059. Besides, the Imax in the series with Mus musculus [10] came out at 85%.

For the compound `CNc1nc(-c2ccc(CCN3CCN(c4nc5ccccc5nc4OC)CC3)cc2)cs1`, the inhibition in vivo at 10 mg/kg with Mus musculus [1] came out at 85%; with Mus musculus [2], 60%; in the series with Mus musculus [7], 51%; in the series on Mus musculus [8], 65%; in the series with Mus musculus [11], 51%. Moreover, the results for the inhibition in series [3] and in series [5] were 58% and 40%, respectively. Besides, the inhibition result in series [4], in series [12] and in series [13] was “inactive” each time. Moreover, the Time in the series with Mus musculus [6] is 10.67 s. Besides, the Selectivity ratio in the series on Mus musculus [9] is listed as 0.6. For the same compound, in the series on Mus musculus [10], the Imax turned out to be 85%.

On to `Cc1nc2n(c(=O)c1CCN1CCC(c3noc4cc(F)ccc34)CC1)CCCC2` [RISPERIDONE], for which the inhibition in vivo at 0.6 mg/kg in the series with Mus musculus [14] stood at 91%; with Mus musculus [15] it was 91%; in the series on Mus musculus [16], 100%; in the series on Mus musculus [17], 90%. The Selectivity ratio in the series on Mus musculus [9] stood at 1.0989. The Imax in the series with Mus musculus [10] is on record as 91%. The inhibition in vivo at 10 mg/kg in the series on Mus musculus [11] turned out to be 100%. Also, the Time in the series with Mus musculus [18] is given as 2.54 s.

On to `Cc1nc(-c2ccc(CCN3CCN(c4nc5ccccc5nc4Cl)CC3)cc2)cs1`, for which the inhibition in vivo at 10 mg/kg in the series with Mus musculus [1] is 65%; with Mus musculus [2], 80%; in the series on Mus musculus [7], 62%; in the series with Mus musculus [8], 75%; in the series on Mus musculus [11], 62%. In addition, the inhibition in series [3] was 30%; in [5], 0%. Moreover, in the series with Mus musculus [6], the Time was 3.25 s. Besides, the Selectivity ratio in the series with Mus musculus [9] amounted to 0.775. Besides, the Imax in the series on Mus musculus [10] came to 80%. The inhibition result in series [12] and in series [13] was “inactive” throughout.

`CNc1nc(-c2ccc(CCN3CCN(c4nc5ccccc5nc4Cl)CC3)cc2)c(C)s1`: the inhibition in vivo at 10 mg/kg in the series with Mus musculus [1] was found to be 95%; in the series on Mus musculus [2] it was 95%; with Mus musculus [7] it was 81%; in the series on Mus musculus [8], 70%; with Mus musculus [11], 81%. The inhibition in series [3] amounted to 31%; in [5] it was 0%. Besides, the Time in the series on Mus musculus [6] is reported as 8.12 s. Besides, in the series on Mus musculus [9], the Selectivity ratio worked out at 0.8526. This compound also had an Imax in the series on Mus musculus [10] of 95%. Also, the inhibition entry in [12] and in [13] was “inactive” each time.

For `COc1nc2ccccc2nc1N1CCN(CCc2ccc(-c3csc(C)n3)cc2)CC1`, the inhibition in vivo at 10 mg/kg is 70% in the series with Mus musculus [1]; 85% in the series with Mus musculus [2]; 62% with Mus musculus [7]; 65% in the series on Mus musculus [8]; 62% in the series on Mus musculus [11]. The inhibition in series [3] was 68%; in series [5], 82%. The inhibition result in series [4], in series [12] and in [13] was “inactive” in each case. Further, in the series with Mus musculus [6], the Time is 6.25 s. Moreover, the Selectivity ratio in the series with Mus musculus [9] is 0.7294. In the series on Mus musculus [10], this compound came in with an Imax of 85%.

Values taken from ChEMBL document CHEMBL3044879, “Design, synthesis, and preliminary in vitro and in vivo pharmacological evaluation of 4-{4-[2-(4-(2-substitutedquinoxalin-3-yl)piperazin-1-yl)ethyl]phenyl}thiazoles as atypical antipsychotic agents” (Med Chem Res, 2013).
